The text below walks through data of patent US10035780B2, “Quinazoline scaffold based compounds, pharmaceutical compositions and methods of use thereof” (TECHNION RESEARCH & DEVELOPMENT FOUNDATION LTD., priority 2014, dated 2018).

Structures are written as SMILES. Entries after “also recorded” stand apart in the source; their conditions may differ. Where two headings read alike, the source gives them in different places.

Data set [1] concerns U118MG cells. As to the kind of experiment: Collapse of the mitochondrial membrane potential (ΔΨm) induced by glutamate. As to conditions: glutamate exposed cells. It counts as cell-based, human. An excerpt: (§1) Techniques and parameters assayed are summarized here: Total protein levels (Bradford. Anal Biochem. 1976; 72:248-54); TSPO ligand binding assays (Kugler et al. 2008; Levin et al. 2005; Danovich et al. Eur Neuropsychopharmacol. 2008; 18:24-33) cell death, including apoptosis and necrosis and related molecular biological processes (Soustiel et al. Neuropathol Appl Neurobiol. 2008; 34:412-23; Soustiel et al. Exp Neurol. 2008; 214:201-8; Zeno et al. 2009); mitochondrial transmembrane potential collapse (Chelli et al. Biochem Pharmacol. 2004; 68:125-34; Kugler et al. 2008; Zeno et al., 2009; Shargorodsky et al. Apoptosis. 2012; 17:647-65), reactive oxygen species (ROS) generation as a measure of oxidative stress (Veenman et al. 2008; Zeno et al. 2009); TSPO knockdown (Levin et al. 2005; Zeno et al. 2009); expression levels of mitochondrial TSPO and associated proteins (Veenman et al. 2002; Levin et al. 2005; Veenman et al. 2008); gene expression with RT-PCR and microarray analysis (Bode et al. 2012; Veenman et al. 2012). Parameters of inflammation, immune response, migration, and the cell cycle are also tested. All these approaches can also be applied for quality control of the compounds.
Compound 1 is very effective at a concentration of 25 μM in this model (in order to achieve the same effect with the classical TSPO ligand PK 11195 a concentration of 50 μM has to be applied (data not shown).

The next data set has as its system R6-2 mice. As to the kind of experiment: Lifespan of R6-2 mice, transgenic model for Huntington Disease. The data set is classed as in vivo, mouse. As to conditions: daily s.c. injections 5 days a week from week 5, vs DMSO and saline. From the text: For the assays described herein systemic injections of kainic in rats were applied and also contusion (Veenman et al. 2002; Soustiel et al. Neuropathol Appl Neurobiol. 2008; Soustiel et al. Exp Neurol. 2008). These models present very well defined cell death in the brain. Cell death in the brain is the major pathological characteristic of progressing neurodegeneration common to brain diseases. As the compounds of the present invention are designed to prevent cell death in the brain as a consequence of disease and progressing brain damage after injury, including behavioral impairments, animal models displaying cell death in the brain are the models of choice for displaying the protective capabilities of the compounds of the invention. For these reasons the R6-2 model for Huntington Disease was chosen to test the effectiveness of Compound 1 and to compare the effectiveness of Compound 1 with those of the compound of U.S. Pat. No. 8,541,428 (Cpd A) and with the classical TSPO ligand PK 11195, as well as other compounds disclosed herein. Compounds 5 and 6 were also tested in the same R6-2 model.
R6-2 is a transgenic mouse model for Huntington Disease. Huntington Disease in humans is a hereditary neurodegenerative disease affecting motor performance and finally leading to death of the patients having the disease. R6-2 mice (˜120 CAG repeats B6CBA-Tg(HDexon1)62 Gpb/3J) mice were used for the experiments described below. For this purpose, mice obtained from the Jackson Laboratory (ME) were bred. In particular: males genotype: Hemizygous for Tg(HDexon1)62 Gpb, and females from the wildtype background strain B6CBAF1/J were bred according to the protocol of Jackson Laboratory. The male heterozygote offspring (R6-2 mice) were used for determining life span and motor activity, with and without drug treatment. Drug treatment consisted of daily (5 continuous days a week) subcutaneous injections of mice with 20 μl of: saline (sham control), vehicle DMSO (vehicle control), classic TSPO ligand PK 11195 (15 mg/kg), prior art Compound A (15 mg/kg), Compound 1 (15 mg/kg), and compound 1 (7.5 mg/kg). Drug treatment started on week 5 after birth. Quantities were used according to previous studies regarding TSPO ligands.
Apart from the behavioral experiments, mice were observed daily, and the day of death was noted. Behavioral experiments included distance covered in an open field apparatus, and tremor measurements.
R6-2 mice were used as previously described in Example 5. In one experiment, treatment consisted of daily (5 continuous days per week) subcutaneous injections of mice with 20 μl of vehicle DMSO (control, n=10) and Compound 6 (7.5 mg/kg, n=12). In a separate experiment, compound 5 (7.5 mg/kg, n=5) was tested, compared to DMSO control (n=5).

A further data set deals with TSPO (Homo sapiens (Human), UniProt P30536). The data set is classed as binding. The protocol: Briefly, the assay utilizes radioactive standard ligand [^3H] PK 11195 (1-(2-chlorophenyl)-N-methyl-N-(1-methyl-propyl)-3 isoquinolinecarboxamide), and measures the ability of the compounds of the invention to displace standard ligand in binding to TSPO. Total radioactive binding was determined by measuring the radioactivity of the radioactive ligand-receptor complex, obtained in the reaction of radioactive standard with the TSPO. Radioactive standard and the examined compound were added to the TSPO and after some incubation time the radioactivity of the resulting ligand-receptor complexes was measured with the help of a […]. This radioactivity indicates the binding of the radioactive standard to TSPO. […] This can be expressed as the half maximal inhibitory concentration (IC50), which is a measure of the effectiveness of a compound in inhibiting biological or biochemical function, in this case inhibiting binding of standard radioactive ligand binding to the TSPO. A derivative of the IC50 is the Ki, which is the calculated binding affinity of the novel compound to the TSPO.
TSPO, sequence (P30536 whole entry): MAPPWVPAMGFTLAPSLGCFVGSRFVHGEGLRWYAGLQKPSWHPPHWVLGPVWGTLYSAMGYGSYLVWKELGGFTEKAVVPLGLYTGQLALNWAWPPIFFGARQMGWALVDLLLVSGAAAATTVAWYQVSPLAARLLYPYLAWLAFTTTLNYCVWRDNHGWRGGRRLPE
Binding to TSPO was evaluated using a [^3H]PK 11195 radio-assay, as described above.

Data set [2] has as its system U118MG cells. As to the kind of experiment: Protection against cell death induced by glutamate in U118MG cell culture. It counts as cell-based, human. As to conditions: for protection against cell death induced by glutamate: U118MG cells, 35 mM glutamate, compound 1-100 μM; for Protection against glutamate-induced cell death: cell culture, grade in words; for lethal effects of compound at high concentration: 100 μM compound alone. How it is done:
Cell cultures of various human glial type cell lines (T98G, U87MG, A172, U118MG), as well as human neuronal type cell lines SH-SY 5Y and Be(2)-C were used to test the new compounds. In addition, the rat glioma cell line C6 was used. PC12 cells originating from rats were used as another cell line displaying neuronal characteristics. The applicants also have produced, by genetic manipulation, a modified rat C6 glial cell strain and a modified human U118MG glial type cell strain, both under-expressing the TSPO, which allows to study TSPO specific effects, including of the compounds of the invention, which can be done according to methods described previously (Weisinger et al. Biochemistry. 2004; 43:12315-21; Levin et al. 2005; Zeno et al., 2009).
The protective capabilities of the compounds of the invention and involvement of the TSPO were tested in cell culture, using cell lines of glial and neuronal type, cultured and testing according to standard methods (Kugler et al. 2008; Zeno et al. 2009; Dadon-Nachum et al. Stem Cell Rev. 2011; 7:664-71). Furthermore, primary cell cultures are also used (Banker, G. et al. Culturing Nerve Cells, 2nd Edition, The MIT Press (1998). Treatments included: (1) exposure to glutamate (35 mM), Abeta(1-42), NH4Cl, CoCl2, and nitric oxide (NO) donors, in order to mimic particular aspects of neurodegeneration; (2) treatment with the novel compounds and with traditional TSPO ligands as comparative treatment; and (3) TSPO knockdown by genetic manipulation.
as §1
The compounds of the invention protect against cell death induced by glutamate in cell culture of U118MG cells of astrocytic origin (FIGS. 1, 2, 3 and 8) or SH SY 6Y cells of neuronal origin (FIG. 4). […] In the control group, 35 mM of glutamate killed ˜60% of the cells.
The experimental setup is explained using FIG. 8B as an example: • 1. Control: Cell death levels are taken as 0% • 2. Glu: Cell death levels induced by glutamate are over 50% • 3. […] Glu+Cpd 5: When Cpd 5 is given as a treatment to counteract cell death induced by glutamate, increasing concentrations of Cpd 5 reduce cell death levels from over 50% to less than 5%.

[3] abbreviates: displacement of [3H]PK 11195 from TSPO.
Where [4] appears, read: binding affinity to the TSPO, unit given as nm.

On to `CCC(C)N(C)C(=O)c1cc2ccccc2c(-c2ccccc2Cl)n1` (stereo not drawn) [PK 11195, 1-(2-chlorophenyl)-N-methyl-N-(1-methyl-propyl)-3 isoquinolinecarboxamide, reference compound], for which the “concentration very effective in preventing ΔΨm collapse” value in the data set with U118MG cells [1] turned out to be 50 µM. The effect on lifespan entry in the data set with R6-2 mice was “indistinguishable from vehicle; also recorded: had no such effects; also recorded: has no effect at all”.
The compound `CCN(CC)C(=O)Oc1nc(-c2ccc(F)c(Cl)c2)nc2ccccc12` [Compound 2, 2-(3-chloro-4-fluorophenyl)quinazolin-4-yl diethylcarbamate] returned a Ki on TSPO (setting [3]) of about 380 nM. The “protection against cell death induced by glutamate” value (“protection … by glutamate” for short) in the data set on U118MG cells [2] is listed as “strong protective properties”; in the data set on U118MG cells [2] (listed as compound 2) it was “protective properties”. Besides, the “Protection against glutamate-induced cell death” value in the data set with U118MG cells [2] is listed as “Good”.
With `CCN(CC)C(=O)Oc1nc(-c2ccccc2)nc2ccccc12` [Compound 7, 2-phenylquinazolin-4-yl diethylcarbamate], the Ki on TSPO (setting [4]) and on TSPO (setting [3]) was about 2.5 nM in each case. Also, the “Protection against glutamate-induced cell death” value with U118MG cells [2] is “Good”.
`CCN(CC)C(=O)Oc1nc(-c2c(Cl)cccc2Cl)nc2ccccc12` [Compound 3, 2-(2,6-dichlorophenyl)quinazolin-4-yl diethylcarbamate] gave a Ki on TSPO (setting [3]) of about 1510 nM. Further, in the data set on U118MG cells [2], the “protection … by glutamate” value is “good protective properties” and the “Protection against glutamate-induced cell death” value is “Good”. In the data set on U118MG cells [2] (listed as compound 3), the “protection … by glutamate” value is on record as “protective properties”.
For the compound `CCN(CC)C(=O)Oc1nc(-c2ccccc2Cl)nc2ccccc12` [Compound 8, 2-(2-chlorophenyl)quinazolin-4-yl diethylcarbamate], the Ki at TSPO (setting [3]) is about 2.5 nM. The “lethal effects of compound at high concentration” value in the data set with U118MG cells [2] (halogenated vs unhalogenated analog) is on record as “reduces lethal effects”; in the data set with U118MG cells [2] (halogenated vs unhalogenated analog, listed as Cpd 8), “reduces cell death effects”. Also, in the data set on U118MG cells [2], the “protection … by glutamate” value is recorded as “improves protection”. Besides, the “Protection against glutamate-induced cell death” value with U118MG cells [2] is recorded as “Good”. Besides, the “cell death effect of glutamate at high compound concentration” value in the data set on U118MG cells [2] (glutamate plus 100 μM compound, halogenated vs unhalogenated analog) was “reduces cell death effect of glutamate in cultures even further”.
Take `CN(C)C(=O)Oc1nc(-c2ccccc2)nc2ccccc12` [Compound A, reference compound]: the Ki on TSPO (setting [4]) was about 600 nM. At TSPO (setting [3]), the Ki is about 600 nM. In the data set on U118MG cells [2], the “protection … by glutamate” value is “significantly less efficacious” and the “Protection against glutamate-induced cell death” value is reported as “Good”. Besides, the effect on lifespan entry in the data set on R6-2 mice was “indistinguishable from vehicle treated mice; also recorded: had no such effects; also recorded: has no effect”.

Usually Ki stands for the dissociation constant of the complex between target and ligand, obtained from inhibition or displacement. Higher therefore signals a looser hold on the target.
